Measured values: patent US11318157B2, “6-6 bicyclic aromatic ring substituted nucleoside analogues for use as PRMT5 inhibitors” (Janssen Pharmaceutica NV, priority 2015, dated 2022)
Like-named read-outs stand apart in the source and are kept apart here.

Legend:
[1] = target: T1, PRMT5-MEP50 enzyme (Homo sapiens, UniProt O14744); assay: In vitro assay 1b: high throughput mass spectrometer assay of SAH formation, 1.25 nM enzyme, 120 min; format: biochemical; details: averaged values; PRMT5-MEP50, 1.25 nM enzyme, 120 min; read-out: pIC50 Assay 1b (converted)
T1 construct: One virus expresses full length human PRMT5 with Flag-tag at N-terminus; Flag (N); purchased Charles River (Argenta); host or cells: insect cells (Sf9), baculovirus co-infection
T1 sequence (O14744 whole entry): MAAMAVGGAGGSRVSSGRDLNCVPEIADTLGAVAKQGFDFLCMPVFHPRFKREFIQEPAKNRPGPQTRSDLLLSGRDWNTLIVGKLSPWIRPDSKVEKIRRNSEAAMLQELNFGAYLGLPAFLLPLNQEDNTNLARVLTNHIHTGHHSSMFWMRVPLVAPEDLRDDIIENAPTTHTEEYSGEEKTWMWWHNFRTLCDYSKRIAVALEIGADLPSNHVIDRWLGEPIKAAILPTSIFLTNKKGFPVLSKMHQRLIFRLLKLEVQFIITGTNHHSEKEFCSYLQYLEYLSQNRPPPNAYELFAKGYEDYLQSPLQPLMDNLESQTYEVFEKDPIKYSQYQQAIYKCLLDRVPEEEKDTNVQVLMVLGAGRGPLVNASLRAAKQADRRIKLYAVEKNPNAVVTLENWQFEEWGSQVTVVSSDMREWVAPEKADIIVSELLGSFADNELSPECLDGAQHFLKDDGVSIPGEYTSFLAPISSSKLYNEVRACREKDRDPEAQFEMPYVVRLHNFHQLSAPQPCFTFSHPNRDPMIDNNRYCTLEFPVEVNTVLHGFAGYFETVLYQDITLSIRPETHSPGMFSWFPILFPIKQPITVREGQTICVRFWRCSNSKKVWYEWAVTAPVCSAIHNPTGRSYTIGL
T1 sequence (Q9BQA1 whole entry partner): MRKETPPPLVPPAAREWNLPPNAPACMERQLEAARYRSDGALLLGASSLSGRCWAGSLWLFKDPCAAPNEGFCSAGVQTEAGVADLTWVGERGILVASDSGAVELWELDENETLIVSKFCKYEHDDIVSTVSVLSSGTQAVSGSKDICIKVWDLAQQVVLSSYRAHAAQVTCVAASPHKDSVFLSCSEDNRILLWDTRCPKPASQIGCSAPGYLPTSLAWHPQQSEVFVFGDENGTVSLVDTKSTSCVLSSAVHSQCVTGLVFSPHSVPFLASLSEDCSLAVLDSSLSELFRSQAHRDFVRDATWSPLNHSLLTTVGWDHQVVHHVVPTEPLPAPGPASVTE
Description: Experimental Procedures In Vitro Assay (Assay 1a and 1b)
PRMT5-MEP50 enzyme was purchased from Charles River (Argenta). The enzyme complex was produced in insect cells (Sf9) infected simultaneously with two baculoviruses. One virus expresses full length human PRMT5 with Flag-tag at N-terminus, the second virus expresses full length MEP50 with His6-TEV cleavage at N-terminus. The protein was affinity purified using anti-Flag (M2) beads eluted with 3×FLAG peptide, followed by His-Select eluted with 0.5M imidazole. Eluted protein was then dialysed against tris-buffered saline (TBS) (pH 8.0) containing 20% glycerol and 3 mM dithiothreitol (DTT).
Full-length untagged human recombinant histone H2A (residues 1-130, Genbank Accession #NM_021052 MW=14.1 kDa) expressed in E. coli was purchased from Reaction Biology Corporation, Cat #HMT-11-146. Reagents used for making reaction buffer or stopping reaction were purchased including Tris base (Sigma Cat #T-1503), NaCl (Sigma Cat #RGF-3270), MgCl2 (Sigma Cat #M0250), DTTI (Invitrogen Cat #15508-013) and Formic Acid (Riedel deHaen, Cat #33015)
High Throughput Mass Spectrometer Assay
PRMT5 catalyzes the sequential methylations of the terminal nitrogen atoms on the guanidine groups of arginine residues within proteins using co-substrate S-adenosyl-L-methionine (AdoMet, SAM), forming mono-methyl (MMA), symmetric-dimethyl arginine (sDMA) and S-adenosyl-L-homocysteine (AdoHcy, SAH). The enzyme activity was determined by following the product SAH formation using high throughput mass spectrometry (Agilent Rapidfire 300 System coupled to a Sciex 4000 series QTrap® triple-quad MS/MS). The reaction buffer was 20 mM Tris-HCl, pH 8.5, 50 mM NaCl, 5 mM MgCl2 and 1 mM DTT. The reaction activity was stopped using 1% formic acid (final concentration).
The IC50 Studies were performed using eleven point dosing series made for each compound by serially diluted 1:2 in dimethyl sulfoxide (DMSO), with point 12 being a DMSO control. Compounds were first spotted to plates, and followed by addition of 2 μM SAM and 0.6 μM H2A (histone H2A) solution mixture. The same volume of enzyme solution was added to initiate the enzymatic reactions. The final concentrations of the reaction are at 1 μM SAM, 0.3 μM H2A and 10 nM enzyme (assay 1a) or 1.25 nM enzyme (assay 1b). The reaction was incubated at 30° C. for 60 minutes (min) when 10 nM enzyme was used and for 120 min when 1.25 nM enzyme was used. Subsequently, the reaction was quenched by addition of formic acid to a final concentration of 1%. The inhibitions of SAH formation in the presence of compounds were calculated as a percentage of the control relative to the uninhibited reaction as a function of inhibitor concentration. The data were fit as follows: Y=Bottom+(Top−Bottom)/(1+10^((log IC50−X)*h))
where IC50 is the inhibitor concentration (same unit as X) at 50% inhibition and h is the Hill slope. Y is percent of inhibition, X is log of compound concentration. Bottom and Top are the plateaus in same units as Y.

[2] = test system: nuclear symmetric Arginine dimethylation in A549 cells; assay: PD assay (assay 2): inhibition of nuclear symmetric Arginine dimethylation (SYM10 immunohistochemistry), 48 h; format: cell-based; details: Homo sapiens
Protocol: Experimental Procedure PD Assay (Assay 2)
A549 cells (ATCC, Cat #CCL-185) were cultured in Dulbecco's Modified Eagle's Medium (DMEM) (Sigma, Cat #D5796), supplemented with 10% Fetal Calf Serum (FCS) (HyClone™, Cat #SV30160.03), 100 mM Sodium Pyruvate (Sigma, Cat #S8636), 200 mM L-Glutamine (Sigma, Cat #G7513) and 50 mg/mL gentamycin (Gibco, Cat #15750-037).
Reagents used for buffers were purchased: Dulbecco's phosphate buffered saline (DPBS) without Ca/Mg (Sigma, Cat #D8537), phosphate buffered saline (PBS) 10× (Roche, Cat #11 666 789 001), Formalin solution 10% (Sigma, HT50-1-128-4L), Methanol 100% (Sigma, Cat #32213-2.5L), Triton X-100 (Acros, Cat #215680010), Bovine Serum Albumin (BSA) (Sigma, Cat #A2153), Alexa fluor 488 goat anti-rabbit antibody (Life Technologies, Cat #A11034), HCS CellMask Deep Red Stain (Life Technologies, Cat #H32721), Hoechst Stain (Life Technologies, Cat #33258), Anti-dimethyl-Arginine, sym (SYM10) antibody (Millipore, 07-412).
Immunohistochemistry Procedure
Cells were plated at 400 cells/40 μL/well in 384 well black μplates clear bottom (Perkin Elmer) and overnight incubated at 37° C., 5% CO2. […] 80 nL of the respective dilution of the compounds was added using the Labcyte POD 810 (Labcyte) reaching a final DMSO concentration of 0.2% in cell culture. After an incubation period of 48 h at 37° C. and 5% CO2, cells were fixed in 10% formalin solution for 15 min at room temperature and 20 min in ice-cold methanol, after which they were washed 3× in DPBS. Subsequently, the cells were blocked for 1 h in blocking buffer (PBS+1% BSA and 0.5% Triton X-100) and incubated overnight at 4° C. with the SYM10 antibody diluted 1/2000 in blocking buffer. The cells were washed 3× with washing buffer (PBS+0.1% Triton X-100) and incubated with the Alexa fluor 488 goat anti-rabbit antibody diluted 1/200 in blocking buffer for 1 h at room temperature. Subsequently, they were washed 3× with washing buffer and incubated for 30 min at room temperature with PBS containing a 1/5000 dilution of Hoechst Stain and a 1/5000 dilution of the HCS CellMask Deep Red Stain. After a final wash with PBS, the plates were imaged using the 10×W lens of the Opera® system (Perkin Elmer Life Sciences) using following settings (values in nm):
In the above equations, the following variable names are used: […]
In the above equations, the following controls were used for normalization: […]
Low control: minimum level of symmetrically dimethylated Arginines (cells treated with reference compound at 10 μM).
High control: maximum level of symmetrically dimethylated Arginines (DMSO treated cells).
IC50 and pIC50 (−log IC50) values were calculated using the appropriate software.
The pIC50 values in the Table below are averaged values (Co. No. means compound number; n.d. means not determined).

[3] = A549, averaged values, PD assay, A549 cells, symmetric Arginine dimethylation, read-out: pIC50 Assay 2 (converted)

Structure (SMILES)	IC50 [1] [nM]	IC50 [2, 3] [nM]	IC50 ([2]; A549, read-out: pIC50 Assay 2 (converted)) [nM]
CNc1ncnc2c1ccn2[C@@H]1C[C@H](CCc2ccc3cc(Cl)c(N)nc3c2)[C@@H](O)[C@H]1O [Compound 194]	0.631	1.58	
CNc1ncnc2c1ccn2[C@@H]1C[C@H](CCc2ccc3ccc(NC(C)C)nc3c2)[C@@H](O)[C@H]1O [Compound 206]	1.58	25.1	
Nc1ncnc2c1ccn2[C@@H]1C[C@H](CCc2ccc3ccc(NC4CCC4)nc3c2)[C@@H](O)[C@H]1O [Compound 156]	0.316	< 1.17	
Nc1nc2cc(CC[C@H]3C[C@@H](n4ccc5c(N)nccc54)[C@H](O)[C@@H]3O)ccc2cc1Br [Compound 252]	0.631		
CNc1ncnc2c1ccn2[C@@H]1C[C@H](CCc2ccc3cc(Br)c(N)nc3c2)[C@@H](O)[C@H]1O [Compound 238]	0.794	1.26	
CNc1ccc2ccc(CC[C@H]3C[C@@H](n4ccc5c(OC)ncnc54)[C@H](O)[C@@H]3O)cc2n1 [Compound 180]	1.26	39.8	
CNc1ncnc2c1ccn2[C@@H]1C[C@H](CCc2ccc3cc(F)c(N)nc3c2)[C@@H](O)[C@H]1O [Compound 202]	1.58	15.8	
Nc1nc2cc(CC[C@H]3C[C@@H](n4ccc5c(NC6CC6)ncnc54)[C@H](O)[C@@H]3O)ccc2cc1Cl [Compound 197]	0.631	31.6	
Nc1nc2cc(CC[C@H]3O[C@@H](n4ccc5c(N)ncnc54)[C@H](O)[C@@H]3O)ccc2cc1C(F)(F)F [Compound 244]	3.16		
Nc1ncc2ccn([C@@H]3C[C@H](CCc4ccc5cc(Cl)c(N)nc5c4)[C@@H](O)[C@H]3O)c2n1 [Compound 243]	0.794	< 1.17	
Nc1nc2cc(CC[C@H]3C[C@@H](n4ccc5c(N)ncnc54)[C@H](O)[C@@H]3O)ccc2cc1Br [Compound 80]		0.251	
COc1ncnc2c1ccn2[C@@H]1C[C@H](COc2ccc3cc(Cl)c(N)nc3c2)[C@@H](O)[C@H]1O [Compound 228]	5.01		
Nc1nc2cc(CC[C@H]3C[C@@H](n4ccc5cccnc54)[C@H](O)[C@@H]3O)ccc2cc1Cl [Compound 249]	20	501	
Nc1ncnc2c1ccn2[C@@H]1C[C@H](COc2ccc3ccc(NCC4CC4)nc3c2)[C@@H](O)[C@H]1O [Compound 224]	< 0.2		
CNc1ncnc2c1ccn2[C@@H]1O[C@H](CCc2ccc3cc(Br)c(N)nc3c2)[C@@H](O)[C@H]1O [Compound 239]	10	25.1	
CNc1ncnc2c1ccn2[C@@H]1O[C@H](CCc2ccc3cc(Cl)c(N)nc3c2)[C@@H](O)[C@H]1O [Compound 198]	3.98	63.1	
Nc1nc2cc(CC[C@H]3O[C@@H](n4ccc5c(N)ncnc54)[C@H](O)[C@@H]3O)ccc2cc1F [Compound 231]	0.631		
Nc1ccc2ccc(CC[C@H]3C[C@@H](n4ccc5c(N)ncnc54)[C@H](O)[C@@H]3O)cc2n1 [Compound 76]			0.158

Structure (SMILES)	IC50 [1] [nM]	IC50 [2, 3] [nM]	IC50 ([2]; A549, read-out: pIC50 Assay 2 (converted)) [nM]
C=Cc1ncnc2c1ccn2[C@@H]1C[C@H](CCc2ccc3ccc(NCC4CC4)nc3c2)[C@@H](O)[C@H]1O [Compound 211]	3.16	~2570	
CNc1ncnc2c1ccn2[C@@H]1C[C@H](COc2ccc3ccc(NCC4CC4)nc3c2)[C@@H](O)[C@H]1O [Compound 225]	6.31		
Nc1ncnc2c1ccn2[C@@H]1O[C@H](COc2ccc3cccnc3c2)[C@@H](O)[C@H]1O [Compound 1]	12.6	79.4	
Nc1nc2cc(CC[C@H]3C[C@@H](n4ccc5ncccc54)[C@H](O)[C@@H]3O)ccc2cc1Cl [Compound 248]	50.1	158	
CNc1nc2cc(CC[C@H]3C[C@@H](n4ccc5c(N)ncnc54)[C@H](O)[C@@H]3O)ccc2cc1F [Compound 157]	631	501	
CNc1ncnc2c1ccn2[C@@H]1C[C@H](CCc2ccc3ccc(NCC(F)(F)F)nc3c2)[C@@H](O)[C@H]1O [Compound 162]	7.94	158	
CNc1ncnc2c1ccn2[C@@H]1C[C@H](CCc2ccc3ccc(NC4CC4)nc3c2)[C@@H](O)[C@H]1O [Compound 179]	0.631	5.01	
Nc1nc2cc(CC[C@H]3C[C@@H](n4ccc5c(N)nc(Cl)nc54)[C@H](O)[C@@H]3O)ccc2cc1Cl [Compound 240]	< 0.2	< 1.17	
CNc1ncnc2c1ccn2[C@@H]1O[C@H](CCc2ccc3cc(F)c(N)nc3c2)[C@@H](O)[C@H]1O [Compound 229]	39.8		
CNc1ncnc2c1ccn2[C@@H]1O[C@H](COc2ccc3cc(Br)c(N)nc3c2)[C@@H](O)[C@H]1O [Compound 232]	3.98		
Nc1nc2cc(CC[C@H]3C[C@@H](n4ccc5cnccc54)[C@H](O)[C@@H]3O)ccc2cc1Cl [Compound 247]	0.794		
Nc1nc2cc(OC[C@H]3O[C@@H](n4ccc5c(N)ncnc54)[C@H](O)[C@@H]3O)ccc2cc1Br [Compound 233]	< 0.2		
Nc1nc2cc(CC[C@H]3O[C@@H](n4ccc5c(N)ncnc54)[C@H](O)[C@@H]3O)ccc2cc1Br [Compound 235]	0.2		
Nc1nc2cc(OC[C@H]3C[C@@H](n4ccc5c(N)ncnc54)[C@H](O)[C@@H]3O)ccc2cc1Br [Compound 236]	< 0.2		
COc1ncnc2c1ccn2[C@@H]1O[C@H](CCc2ccc3cc(F)c(N)nc3c2)[C@@H](O)[C@H]1O [Compound 230]	631		
Nc1nc2cc(OC[C@H]3O[C@@H](n4ccc5c(O)ncnc54)[C@H](O)[C@@H]3O)ccc2cc1Br [Compound 234]	794		
CNc1ncnc2c1ccn2[C@@H]1C[C@H](COc2ccc3cc(Cl)c(N)nc3c2)[C@@H](O)[C@H]1O [Compound 227]	1.26		
